{"source": "patent US6509377B1", "about": "“Use of a 2-hydroxy-4-trifluoromethylbenzoic acid derivatives as inhibitors of the activation of the nuclear transcription factor NF-κB” (J. Uriach & Cia, S.A., priority 1999, dated 2003)", "key": {"NF-κB": {"system": "NF-κB", "experiment": "Activation of NF-κB induced by immune complexes in rat peritoneal macrophages (EMSA)", "assay_type": "cell-based", "details": "4 mM, 100 μg/ml IgG/ovalbumin, 2 hours", "experimental": "Rat peritoneal cavity cells were extracted and resuspended in DMEM culture medium in the absence of serum previously supplemented with 100 U/ml penicillin, 100 μg/ml streptomycin, 50 μg/ml gentamycin, 2 mM glutamine and 0.5 mM L-arginine. Cells were incubated for 2 hours in culture plates at 37° C. and those which had not adhered to the plates were removed by washing three times with the same fresh medium. More than 95% of the adherent cells were macrophages, as assessed by their ability to engulf zymosan particles and nonspecific esterase staining. Macrophages were kept at 37° C. under a 5% CO2 atmosphere and two hours later non-adherent cells were removed and the peritoneal macrophages adhered to the plates were incubated with 100 μg/ml IgG/ovalbumin immune complexes prepared from; rabbit antiserum for 2 hours in the presence or absence (vehicle) of triflusal or HTB (4 mM, both).\nAfter incubation, macrophages were washed twice with PBS and the degree of activation (binding to DNA) of the transcription factor NF-κB was determined using the EMSA assay, described in detail in Example 1."}, "VCAM-1": {"system": "VCAM-1", "experiment": "Expression of VCAM-1 mRNA induced by TNF-α in HUVEC (RT-PCR)", "assay_type": "cell-based, human", "details": "4 mM, TNF-α 100 U/ml, one hour", "from_the_text": "(§1) Primers used for the detection of VCAM-1 mRNA by RT-PCR were designed from the human gene sequence (EMBUGenBank AC: M30257), using the Wisconsin Package Version 9.1, Genetics Computer Group (GCG), Madison, Wis. Their sequences were 5′-TGTCACTGTMGCTGCMG-3′ and 5′-TTCCAGCCTGGTTAATTC-3′, corresponding to nucleotides 1090-1108 and 1589-1572 (L. Osbom et al., Cell 1989, 59(6), 1203-1211). Total RNA was extracted from cultured cells using the guanidium isothiocyanate method (P. Chomczynski and N. Sacchi, Anal Biochem. 1987, 162(1), 156-159). cDNA first strand was synthesized from total RNA by reverse transcription reaction. […] The relative amounts of each amplified cDNA were determined by measuring the density of the bands stained with ethidium bromide using the Gel Doc documentation system and the Molecular Analyst software from Bio-Rad Laboratories, Hercules, Calif. […]\n(§2) Specifically, the effect of Triflusal (4 mM) and HTB (4 mM) on the regulation of the expression of VCAM-1 mRNA induced by TNF-α (100 U/ml) in HUVEC was studied. […] The PCR products were separated by electrophoresis in a 1.8% agarose gel and were later quantified. The molecular weight of the amplification products was determined from the electrophoretic migration of DNA size standards."}, "β-actin": {"system": "β-actin", "experiment": "Expression of β-actin mRNA in HUVEC (RT-PCR, constitutive control gene)", "assay_type": "cell-based, human", "details": "4 mM", "from_the_text": "as §1, §2"}, "COX-2": {"system": "COX-2", "experiment": "PGE2 production induced by LPS in human PBMC (ELISA)", "assay_type": "cell-based", "details": "LPS 10 μg/ml, 19 hours, 0.1-5 mM", "experimental": "Mononuclear cells (PBMC) were obtained from blood of healthy donors from the Hospital de Sant Pau, (Barcelona) who had not taken any antiinflammatory drug during a period of not less than 2 weeks before blood extraction. Starting from a volume of about 80 ml of heparinized human blood (10 U/ml), this was diluted (1:1) with PBS (pH 7.4; Dulbecco) without calcium, magnesium nor sodium bicarbonate. 15 ml of Ficoll solution (d=1.077 at 20° C.; Biochrom KG) were placed in 50-ml Falcon tubes. To this solution a volume of about 25 ml per tube of the blood previously diluted with PBS was carefully added and the tubes were then centrifuged at 1,200 g for 20 minutes. Mononudear cells concentrate on a whitish interphase between the plasma and the Ficoll solution. This interphase was collected with a Pasteur pipette and was diluted 1:1 with PBS. It was then centrifuged at 300 g, 10 min. The resulting pellet was resuspended in 50 ml PBS and was again centrifuged at 200 g for 10 min in order to remove platelet contamination. Finally, the resulting pellet was resuspended in 20 ml RPMI-1640 culture medium (GibcoBRL) supplemented with 10% fetal calf serum. […]\nFinally, the supernatants from each experiment that had been stored at −70° C. were defrozen and the amount of PGE2 in solution was determined using specific ELISA kits (Amershan-Biotrak RPN22)."}}}
{"smiles": "O=C(O)c1ccc(C(F)(F)F)cc1O", "note": "[HTB, 2-hydroxy-4-trifluoromethylbenzoic acid]", "values": [{"measurement": "inhibition of the activation of NF-κB induced by immune complexes", "setting": "NF-κB", "result": "markedly inhibit"}, {"measurement": "inhibition of the expression of VCAM-1 mRNA induced by TNF-α", "setting": "VCAM-1", "result": "completely inhibit"}, {"measurement": "effect on the expression of β-actin mRNA", "setting": "β-actin", "result": "absence of effect"}, {"measurement": "inhibition of PGE2 production", "setting": "COX-2", "result": "concentration-dependently inhibit"}]}
{"smiles": "CC(=O)Oc1cc(C(F)(F)F)ccc1C(=O)O", "note": "[triflusal, 2-Acetyloxy-4-trifluoromethylbenzoic acid, reference compound]", "values": [{"measurement": "inhibition of the activation of NF-κB induced by immune complexes", "setting": "NF-κB", "result": "markedly inhibit"}, {"measurement": "inhibition of the expression of VCAM-1 mRNA induced by TNF-α", "setting": "VCAM-1", "result": "completely inhibit"}, {"measurement": "effect on the expression of β-actin mRNA", "setting": "β-actin", "result": "absence of effect"}, {"measurement": "inhibition of PGE2 production", "setting": "COX-2", "result": "concentration-dependently inhibit"}]}
